# Measured values: US10544134B2, “4-substituted coumarin derivatives and preparation methods and uses thereof” (SI CHUAN UNIVERSITY, priority 2015, dated 2020)
# Where two headings read alike, the source gives them in different places.
# Assays:
# Test in all cases: Tumor cell proliferation inhibitory activity test in vitro (MTT)
# breast cancer cell MCF-7 = format: cell-based; settings: read-out: IC50 of compounds for tumor cells, Activity, MCF-7
# Description: (§1) Human non-small cell lung cancer cell line NCI-H460, human small cell lung cancer cell line NCI-H446, human hepatocellular carcinoma cell strain HepG2, human colon carcinoma cell strain HCT116, human prostate cancer PC-3, human melanoma A375, colon carcinoma cell HCT-8, breast cancer cell MCF-7, ovarian cancer cell A2780s, drug-resistant ovarian cancer cell A2780/T, drug-resistant colon cancer cell HCT-8/T and doxorubicin-resistant breast cancer cell MCF-7/ADR are obtained from American Type Culture Collection (ATCC) and are cultured and preserved by the cell bank of State Key Laboratory of Biotherapy of Sichuan University. Above tumor cells are routinely cultured in DMEM culture medium containing 10% fetal bovine serum, 100 U·mL-1 penicillin and 100 mg·L−1 streptomycin, and in an incubator at 37° C. and with saturated humidity and 5% CO2 concentration.
# (§2) Fill diluted cell suspension in the 96-well plate with 1000-10000 cells per well and incubate it in CO2 incubator overnight.
# (§3) Replace with new medium containing various concentrations of compounds to be tested for the test group and replace with fresh medium with equal volume for the control group, each group is arranged with 5 parallel wells and incubated in an incubator at 37° C. and with 5% CO2 concentration.
# (§4) Discard the supernatant after 72 hours, add 200 μL freshly prepared serum-free medium containing 0.2 mg/mL MTT into each well, continue to incubate at 37° C. for 1-4 hours, then stop incubation, carefully remove the culture supernatant in the wells and add 200 uL DMSO (dimethyl sulfoxide), oscillate with a miniature ultrasonic oscillator for 15-20 minutes to make the crystal fully dissolved and mixed. Determine OD values using a microplate reader at 570 nm with a reference wavelength of 450 nm.
# (§5) Draw curves based on the growth inhibition rate for tumor cells of the same sample with different concentrations to get dose-response curve, so as to calculate IC50. Repeat each test for 3 times, measure IC50 (μM) or nanomolor concentration (nM) of compounds in different tumor cells.
# prostate cancer PC-3 = format: cell-based, human; settings: 72 hours, read-out: IC50 of compounds for tumor cells, Activity, PC-3
# Description: as §1, §2, §3, §4, §5
# [1] = system: non-small cell lung cancer cell line NCI-H460; format: cell-based, human; settings: read-out: IC50 of compounds for tumor cells, Activity, H460
# Description: as §1, §2, §3, §4, §5
# [2] = system: hepatocellular carcinoma cell HEPG2; format: cell-based, human; settings: read-out: IC50 of compounds for tumor cells, Activity, HEPG2
# Description: as §1, §2, §3, §4, §5
# melanoma A375 = format: cell-based, human; settings: read-out: IC50 of compounds for tumor cells, Activity, A375
# Description: as §1, §2, §3, §4, §5
# [3] = system: colon carcinoma cell HCT116; format: cell-based, human; settings: read-out: IC50 of compounds for tumor cells, Activity, HCT116
# Description: as §1, §2, §3, §4, §5
# [4] = Homo sapiens, NCI-H460, 72 hours
# [5] = Homo sapiens, HCT-116, 72 hours
Compound,IC50 (breast cancer cell MCF-7; 72 hours),IC50 (prostate cancer PC-3),IC50 ([1]; 72 hours),IC50 ([2]; 72 hours),IC50 (melanoma A375; 72 hours),IC50 ([3]; 72 hours),"IC50 (breast cancer cell MCF-7; Homo sapiens, MCF7, 72 hours)",IC50 (prostate cancer PC-3; Homo sapiens),"IC50 [1, 4]","IC50 ([2]; Homo sapiens, HepG2, 72 hours)","IC50 (melanoma A375; Homo sapiens, A-375, 72 hours)","IC50 [3, 5]"
4-(N-methyl-N-(4-methoxy-3-(2-methylphenyl-methoxycarbonyl)-benzene)-amino) Coumarin [COUM-63],0.1 to 5 µM,0.1 to 5 µM,0.1 to 5 µM,0.1 to 5 µM,0.1 to 5 µM,0.1 to 5 µM,,,,,,
4-(N-methyl-N-(4-methoxy-3-(2-pyrrole ethoxy)-benzene)-amino) Coumarin [COUM-52],0.1 to 5 µM,0.1 to 5 µM,0.1 to 5 µM,0.1 to 5 µM,0.1 to 5 µM,0.1 to 5 µM,,,,,,
4-(N-methyl-N-(4-methoxy-3-(3-chlorophenyl-methoxycarbonyl)-benzene)-amino) Coumarin [COUM-62],0.1 to 5 µM,0.1 to 5 µM,0.1 to 5 µM,0.1 to 5 µM,0.1 to 5 µM,0.1 to 5 µM,,,,,,
4-(N-methyl-N-(4-methoxy-3-(4-fluorobenzene) methanesulfonate-benzene)-amino) Coumarin [COUM-56],0.1 to 5 µM,0.1 to 5 µM,0.1 to 5 µM,0.1 to 5 µM,0.1 to 5 µM,0.1 to 5 µM,,,,,,
4-(N-methyl-N-(4-methoxy-3-((4-ethylbenzene) methoxycarbonyl)-benzene)-amino) Coumarin [COUM-53],0.1 to 5 µM,0.1 to 5 µM,0.1 to 5 µM,0.1 to 5 µM,0.1 to 5 µM,0.1 to 5 µM,,,,,,
4-(N-methyl-N-(4-methoxy-3-(furan-2-yl-methoxycarbonyl)-benzene)-amino) Coumarin [COUM-61],0.1 to 5 µM,0.1 to 5 µM,0.1 to 5 µM,0.1 to 5 µM,0.1 to 5 µM,0.1 to 5 µM,,,,,,
"O=c1cc(-c2ccc(-c3cccc(Cl)c3)s2)c2ccccc2o1 [COUM-8, 4-(5-(3-chlorobenzene)thiophene-2-yl)-coumarin]",,,,,,,> 5 µM,> 5 µM,> 5 µM,> 5 µM,> 5 µM,> 5 µM
"COc1ccc2c(-c3ccc(-c4ccc5c(c4)OCO5)s3)cc(=O)oc2c1 [COUM-11, 4-(5-(3,4-(methylenedioxy)benzene)thiophene-2-yl)-7-methoxyl-coumarin]",,,,,,,> 5 µM,> 5 µM,> 5 µM,> 5 µM,> 5 µM,> 5 µM
"COc1ccc2c(-c3ccc(-c4ccccc4OC)s3)cc(=O)oc2c1 [COUM-12, 4-(5-(2-methoxybenzene)thiophene-2-yl)-7-methoxyl-coumarin]",,,,,,,> 5 µM,> 5 µM,> 5 µM,> 5 µM,> 5 µM,> 5 µM
"CCOC(=O)c1cccc(-c2ccc(-c3cc(=O)oc4cc(OC)ccc34)s2)c1 [COUM-13, 4-(5-(3-ethoxycarbonylbenzene)thiophene-2-yl)-7-methoxyl-coumarin]",,,,,,,> 5 µM,> 5 µM,> 5 µM,> 5 µM,> 5 µM,> 5 µM
"COc1ccc(-c2ccc(-c3cc(=O)oc4ccccc34)o2)cc1 [COUM-15, 4-(5-(4-methoxyphenyl)furan-2-yl)-coumarin]",,,,,,,> 5 µM,> 5 µM,> 5 µM,> 5 µM,> 5 µM,> 5 µM
"CS(=O)(=O)c1ccc(-c2ccc(-c3cc(=O)oc4ccccc34)o2)cc1 [COUM-16, 4-(5-(4-methylsulfonylphenyl)furan-2-yl)-coumarin]",,,,,,,> 5 µM,> 5 µM,> 5 µM,> 5 µM,> 5 µM,> 5 µM
"Cc1ccc(-c2ccc(-c3cc(=O)oc4ccccc34)o2)cc1 [COUM-17, 4-(5-(4-methylphenyl)furan-2-yl)-coumarin]",,,,,,,> 5 µM,> 5 µM,> 5 µM,> 5 µM,> 5 µM,> 5 µM
"COc1ccccc1-c1ccc(-c2cc(=O)oc3ccccc23)o1 [COUM-18, 4-(5-(2-methoxyphenyl)furan-2-yl)-coumarin]",,,,,,,> 5 µM,> 5 µM,> 5 µM,> 5 µM,> 5 µM,> 5 µM
"O=c1cc(-c2ccc(-c3ccccc3)o2)c2ccccc2o1 [COUM-19, 4-(5-phenylfuran-2-yl)-coumarin]",,,,,,,> 5 µM,> 5 µM,> 5 µM,> 5 µM,> 5 µM,> 5 µM
"COc1cc(-c2ccc(-c3cc(=O)oc4ccccc34)o2)cc(OC)c1OC [COUM-20, 4-(5-(3,4,5-trimethoxyphenyl)furan-2-yl)-coumarin]",,,,,,,> 5 µM,> 5 µM,> 5 µM,> 5 µM,> 5 µM,> 5 µM
"O=c1cc(-c2ccc(-c3ccc(Cl)cc3)o2)c2ccccc2o1 [COUM-21, 4-(5-(4-chlorobenzene)furan-2-yl)-coumarin]",,,,,,,> 5 µM,> 5 µM,> 5 µM,> 5 µM,> 5 µM,> 5 µM
"O=c1cc(-c2ccc(-c3cccc(Cl)c3)o2)c2ccccc2o1 [COUM-22, 4-(5-(3-chlorobenzene)furan-2-yl)-coumarin]",,,,,,,> 5 µM,> 5 µM,> 5 µM,> 5 µM,> 5 µM,> 5 µM
"COc1ccc2c(-c3ccc(-c4cc(OC)c(OC)c(OC)c4)o3)cc(=O)oc2c1 [COUM-23, 4-(5-(3,4,5-trimethoxybenzene)furan-2-yl)-7-methoxyl-coumarin]",,,,,,,> 5 µM,> 5 µM,> 5 µM,> 5 µM,> 5 µM,> 5 µM
"COc1ccc2c(-c3ccc(-c4ccc(C)cc4)o3)cc(=O)oc2c1 [COUM-24, 4-(5-(4-methylbenzene)furan-2-yl)-7-methoxyl-coumarin]",,,,,,,> 5 µM,> 5 µM,> 5 µM,> 5 µM,> 5 µM,> 5 µM
"COc1ccc2c(-c3ccc(-c4ccc5c(c4)OCO5)o3)cc(=O)oc2c1 [COUM-25, 4-(5-(3,4-(methylenedioxy)benzene)furan-2-yl)-7-methoxyl-coumarin]",,,,,,,> 5 µM,> 5 µM,> 5 µM,> 5 µM,> 5 µM,> 5 µM
"COc1ccc2c(-c3ccc(-c4ccccc4OC)o3)cc(=O)oc2c1 [COUM-26, 4-(5-(2-methoxybenzene)furan-2-yl)-7-methoxyl-coumarin]",,,,,,,> 5 µM,> 5 µM,> 5 µM,> 5 µM,> 5 µM,> 5 µM
"CCOC(=O)c1cccc(-c2ccc(-c3cc(=O)oc4cc(OC)ccc34)o2)c1 [COUM-27, 4-(5-(3-ethoxycarbonylbenzene)furan-2-yl)-7-methoxyl-coumarin]",,,,,,,> 5 µM,> 5 µM,> 5 µM,> 5 µM,> 5 µM,> 5 µM
"COc1ccc2c(-c3ccc(-c4ccc(Cl)cc4)o3)cc(=O)oc2c1 [COUM-28, 4-(5-(4-chlorobenzene)furan-2-yl)-7-methoxyl-coumarin]",,,,,,,> 5 µM,> 5 µM,> 5 µM,> 5 µM,> 5 µM,> 5 µM
"COc1cccc(-c2ccc(-c3cc(=O)oc4ccccc34)s2)c1 [COUM-29, 4-(5-(3-methoxyphenyl)thiophene-2-yl)-coumarin]",,,,,,,> 5 µM,> 5 µM,> 5 µM,> 5 µM,> 5 µM,> 5 µM
"O=c1cc(-c2ccc(-c3ccccc3Cl)s2)c2ccccc2o1 [COUM-30, 4-(5-(2-chlorobenzene)thiophene-2-yl)-coumarin]",,,,,,,> 5 µM,> 5 µM,> 5 µM,> 5 µM,> 5 µM,> 5 µM
